{
  "source": "paper PMC12467382",
  "about": "“Synthesis and Bioevaluation of Chalcones as Broad-Spectrum Antiviral Compounds Against Single-Stranded RNA Viruses” (Biomolecules, 2025)",
  "key": {"LACV": {"test_system": "LACV", "test": "LACV Gc protein expression in Hs27 cells by flow cytometry", "format": "cell-based, La Crosse Virus", "settings": "MOI 10, 24 hpi; for Cells expressing LACV glycoprotein Gc: 10 µM before and after infection, DMSO ~60%", "method": "La Crosse Virus (LACV) was kindly provided by Andrew Pekosz (Johns Hopkins Bloomberg School of Public Health, Baltimore, MD, USA), grown at 28 °C in C6/36 cells derived from the larvae of the Asian tiger mosquito (ATCC), and titered at 37 °C on Vero cells as previously described. Infections were carried out in DMEM containing 2% HI FBS for 1 h or mock infected with media alone. Cells were washed with PBS and cultured in DMEM containing 2% HI FBS.\n(§1) For cytotoxicity assays, cells were stained with propidium iodide (PI) at a dilution of 1:100. Cell viability was determined via flow cytometry using the CytoFLEX (Beckman Coulter, Brea, CA, USA). CytExpert software (Beckman Coulter, version 2.4) was used to analyze independent events. PIV5 infection was monitored using flow cytometry via the FITC channel by analyzing GFP expression of individual cells. ZIKV infection was monitored utilizing Flavivirus group antigen–antibody (D1-4G2-4-15; Novus Biologicals, Littleton, CO, USA) staining for the ZIKV envelope protein. Cells were fixed and permeabilized using eBioscience Intracellular Fixation and Permeabilization Buffer (Invitrogen, Thermo Fisher Scientific, MA, USA) according to the manufacturer’s instructions. Secondary staining was performed using an anti-Alexa Fluor 488 (AF488) antibody (Invitrogen, Thermo Fisher Scientific, MA, USA). OC43 infection was monitored utilizing a primary antibody targeted toward the OC43 nucleocapsid protein (NP, MAB9013, Sigma-Aldrich, St. Louis, MO, USA). Secondary staining was performed using an AF488 antibody. Cells were fixed and permeabilized as previously described. LACV infection was monitored utilizing an anti-LACV Gc 807.31ab antibody kindly provided by Andrew Pekosv. Secondary staining was performed using an AF488 antibody. Cells were fixed and permeabilized as previously described.\n(§2) To expand these findings, we evaluated whether these top-performing chalcones inhibited the replication of other RNA viruses. […]"}, "OC43": {"test_system": "OC43", "test": "Coronavirus OC43 NP protein expression in Hs27 cells by flow cytometry", "format": "cell-based, Human Coronavirus OC43", "settings": "MOI 50, 24 hpi; for Cells expressing OC43 NP protein: 10 µM before and after infection, DMSO ~65%", "method": "Human Coronavirus OC43 (ATCC, catalog number VR-1558) was grown in a human colorectal adenocarcinoma cell line (HCT-8; ATCC, Manassas, Virginia, catalog #CCL-244) at 33 °C as previously described. OC43 titers were determined at 33 °C via 50% Tissue Culture Infectious Dose assays (TCID50) on confluent human rhabdomyosarcoma (RD; ATCC, Manassas, Virginia, catalog # CCL-136) cells in 96-well plates as previously described. Infections were carried out in DMEM containing 10% BSA for 1 h at 33 °C. Cells were then washed with PBS, cultured in DMEM supplemented with 2% HI FBS, and incubated at 33 °C.\nFor cytotoxicity assays, cells were stained with propidium iodide (PI) at a dilution of 1:100. Cell viability was determined via flow cytometry using the CytoFLEX (Beckman Coulter, Brea, CA, USA). CytExpert software (Beckman Coulter, version 2.4) was used to analyze independent events. PIV5 infection was monitored using flow cytometry via the FITC channel by analyzing GFP expression of individual cells. ZIKV infection was monitored utilizing Flavivirus group antigen–antibody (D1-4G2-4-15; Novus Biologicals, Littleton, CO, USA) staining for the ZIKV envelope protein. Cells were fixed and permeabilized using eBioscience Intracellular Fixation and Permeabilization Buffer (Invitrogen, Thermo Fisher Scientific, MA, USA) according to the manufacturer’s instructions. Secondary staining was performed using an anti-Alexa Fluor 488 (AF488) antibody (Invitrogen, Thermo Fisher Scientific, MA, USA). OC43 infection was monitored utilizing a primary antibody targeted toward the OC43 nucleocapsid protein (NP, MAB9013, Sigma-Aldrich, St. Louis, MO, USA). Secondary staining was performed using an AF488 antibody. Cells were fixed and permeabilized as previously described. LACV infection was monitored utilizing an anti-LACV Gc 807.31ab antibody kindly provided by Andrew Pekosv. Secondary staining was performed using an AF488 antibody. […]\nas §2"}, "ZIKV": {"test_system": "ZIKV", "test": "ZIKV envelope (E) protein expression in Hs27 cells by flow cytometry", "format": "cell-based, Zika Virus", "settings": "MOI 5, 24 hpi; for Cells expressing ZIKV envelope (E) protein: 10 µM before and after infection, DMSO 15%", "method": "The MR766 strain of Zika Virus (ZIKV) (ATCC-VR84, Manassas, VA, USA) was grown and titered at 37 °C using Vero cells as previously described. Infections were carried out in DMEM containing 10% BSA for 1 h. Cells were then washed with PBS and cultured in DMEM containing 10% HI FBS.\nas §1\nTo expand these findings, we evaluated whether these top-performing chalcones inhibited the replication of other RNA viruses. Briefly described, Hs27 cells were left untreated, treated with DMSO as a control, or treated with the chalcones 8a, 8o, or 8p at 10 μM for 24 h. Cells were then infected with the Bunyavirus LACV, the Flavivirus ZIKV, or the Coronavirus OC43 at high MOIs, as listed in Figure 10. […]"}, "Vero cells": {"test_system": "Vero cells", "test": "Propidium iodide (PI) staining cytotoxicity in Vero cells by flow cytometry", "format": "cell-based", "settings": "24 h, concentration giving 10% PI+ cells", "method": "We also extended the analysis of chalcone anti-viral effects to the widely used Vero cell line. […] The quotients of these values were determined to compare the compounds directly while accounting for both cytotoxicity and efficacy against PIV5."}, "mTOR signaling": {"test_system": "mTOR signaling", "test": "Western blot of prps6 and rps6 as readouts of mTOR signaling in PANC-1 cells", "format": "cell-based", "settings": "72 h, chalcones 10 µM, rapamycin 10 nM", "method": "PANC-1 cells were cultured in 6-well dishes and were lysed using modified radioimmunoprecipitation assay (RIPA) buffer (20 mM HEPES, pH 7.0, 150 mM NaCl, 1 mM EDTA, 1% NP-40, 1% deoxycholate, and 0.1% sodium dodecyl sulfate [SDS]) containing a complete protease inhibitor cocktail (Roche, Mannheim, Germany) and PhosSTOP phosphatase inhibitor cocktail (Roche, Mannheim, Germany). Protein concentrations were determined using the bicinchoninic acid (BCA) protein assay kit (Pierce, Rockford, IL, USA) according to manufacturer’s instructions. Cell lysates with 25 µg of protein were resolved on 12% sodium dodecyl sulfate-polyacrylamide gel electrophoresis (SDS-PAGE) gels and electro-transferred onto polyvinylidene difluoride (PVDF) membranes (Trans-Blot Turbo Transfer System, BioRad, Hercules, CA, USA). The samples were probed with rabbit monoclonal antibodies for the P-rps6 (1:1000) protein (Cell Signaling, Danvers, MA, USA) and mouse monoclonal antibodies for rps6 (1:1000) (Cell Signaling) and β-actin (1:5000) (Abcam, Waltham, MA, USA) proteins. Blots were visualized using anti-rabbit or anti-mouse horseradish peroxidase (HRP)-conjugated antibodies (Cell Signaling) and chemiluminescence reagent (Thermo Fisher Scientific, Waltham, MA, USA).\nPANC-1 cells were chosen for this study as they are highly dependent on mTOR for their growth. PANC-1 cells were cultured and treated with the positive control rapamycin (10 nM) and chalcones NM5, 8a, 8o, 8s, 8v, and 8w (10 μM) for 72 h. Rapamycin and the chalcones were dissolved in 100% DMSO and dosed so that the final DMSO concentration was 0.1%. Cell lysates were collected and analyzed to determine the relative protein expression levels of rps6, prps6, and β-actin as a loading control (see Figure 12)."}, "[1]": {"test_system": "human cytomegalovirus (HCMV)", "parameters": "method as in PMID 23768434", "settings": "cited from earlier work"}, "[2]": {"test_system": "human immunodeficiency virus (HIV)", "parameters": "method as in PMID 27161874", "settings": "cited from earlier work"}},
  "data": [
    {"smiles": "CCOc1ccc(Cl)cc1/C=C/C(=O)c1c(O)cccc1OCc1ccccc1", "note": "[Chalcone 8p]", "values": [
      {"measurement": "Cells expressing LACV glycoprotein Gc", "setting": "LACV", "result": "below 10%"},
      {"measurement": "Cells expressing OC43 NP protein", "setting": "OC43", "result": "1-2%"},
      {"measurement": "Cells expressing ZIKV envelope (E) protein", "setting": "ZIKV", "result": "~ 2%"},
      {"measurement": "PI MTC", "setting": "Vero cells", "result": 3.2, "unit": "µM"}
    ]},
    {"smiles": "CCOc1ccc(Br)cc1/C=C/C(=O)c1c(O)cccc1OCc1ccc(-c2ccccc2)cc1", "note": "[Chalcone 8v, (2E)-1-[2-(Biphenyl-4-Ylmethoxy)-6-Hydroxy-Phenyl]3-(5-Bromo-2-Ethoxy-Phenyl)-Propenone]", "values": [
      {"measurement": "prps6 expression relative to DMSO control", "setting": "mTOR signaling", "result": "no significant change"},
      {"measurement": "total rps6 protein expression relative to DMSO control", "setting": "mTOR signaling", "result": "no significant difference"}
    ]},
    {"smiles": "COc1ccc(Br)cc1/C=C/C(=O)c1c(O)cccc1OCCC(C)C", "note": "[Chalcone 8s, (2E)-3-(5-Bromo-2-Methoxy-Phenyl)-1-[2-Hydroxy-6-(3-Methyl-Butoxy)-Phenyl]-Propenone]", "values": [
      {"measurement": "prps6 expression relative to DMSO control", "setting": "mTOR signaling", "result": "no significant change"},
      {"measurement": "total rps6 protein expression relative to DMSO control", "setting": "mTOR signaling", "result": "significantly increased"}
    ]},
    {"smiles": "CCOc1ccc(Br)cc1/C=C/C(=O)c1c(O)cccc1OCc1ccccc1", "note": "[Chalcone 8o]", "values": [
      {"measurement": "Cells expressing LACV glycoprotein Gc", "setting": "LACV", "result": "below 10%"},
      {"measurement": "Antiviral activity against HCMV", "setting": "[1]", "result": "had efficacy as an antiviral agent"},
      {"measurement": "Antiviral activity against HIV", "setting": "[2]", "result": "had efficacy as an antiviral agent"},
      {"measurement": "Cells expressing OC43 NP protein", "setting": "OC43", "result": "1-2%"},
      {"measurement": "prps6 expression relative to DMSO control", "setting": "mTOR signaling", "result": "no significant change"},
      {"measurement": "total rps6 protein expression relative to DMSO control", "setting": "mTOR signaling", "result": "no significant difference"},
      {"measurement": "Cells expressing ZIKV envelope (E) protein", "setting": "ZIKV", "result": "~ 2%"},
      {"measurement": "PI MTC", "setting": "Vero cells", "result": 2.5, "unit": "µM"}
    ]},
    {"smiles": "COc1ccc(Br)cc1/C=C/C(=O)c1c(O)cccc1OCc1ccccc1", "note": "[Chalcone 8l]", "values": [
      {"measurement": "PI MTC", "setting": "Vero cells", "result": 4.0, "unit": "µM"}
    ]},
    {"smiles": "COc1ccc(Br)cc1/C=C/C(=O)c1c(O)cccc1OCc1ccc(-c2ccccc2)cc1", "note": "[Chalcone 8w, (2E)-1-[2-(Biphenyl-4-Ylmethoxy)-6-Hydroxy-Phenyl]3-(5-Bromo-2-Methoxy-Phenyl)-Propenone]", "values": [
      {"measurement": "prps6 expression relative to DMSO control", "setting": "mTOR signaling", "result": "no significant change"},
      {"measurement": "total rps6 protein expression relative to DMSO control", "setting": "mTOR signaling", "result": "no significant difference"}
    ]},
    {"smiles": "COc1ccc(Br)cc1/C=C/C(=O)c1c(O)cccc1OC", "note": "[Chalcone 8f]", "values": [
      {"measurement": "PI MTC", "setting": "Vero cells", "result": 6.8, "unit": "µM"}
    ]},
    {"smiles": "COc1ccccc1/C=C/C(=O)c1ccccc1O", "note": "[Chalcone 8a]", "values": [
      {"measurement": "Inhibition of viral gene expression, LACV", "setting": "LACV; 10 µM", "result": "did not inhibit viral gene expression"},
      {"measurement": "Effect on OC43 NP expression", "setting": "OC43; 10 µM", "result": "significant inhibitory effects"},
      {"measurement": "prps6 expression relative to DMSO control", "setting": "mTOR signaling", "result": "no significant change"},
      {"measurement": "total rps6 protein expression relative to DMSO control", "setting": "mTOR signaling", "result": "no significant difference"},
      {"measurement": "Inhibition of viral gene expression, ZIKV", "setting": "ZIKV; 10 µM", "result": "did not inhibit viral gene expression"}
    ]}
  ]
}
